In patent publication US20190151283A1, “NON-STEROIDAL SELECTIVE GLUCOCORTICOID RECEPTOR AGONISTIC MODULATORS (SEGRAMs) AND USES THEREOF” (ASSOCIATION POUR LA RECHERCHE À L'IGBMC (ARI), priority 2017, published 2019):

What was measured:
Type in all cases: in vivo, mouse
Balb/C mice [1] = test: Skin atrophy after 8-day topical treatment of dorsal skin; settings: for epidermal thickness: morphometric analysis; for transcription of the REDD1 gene in dorsal skin: topical 8 days, 1 nmole/cm^2, 'but not' = not increased
Source text: To investigate whether, similarly to Dex, a topical administration of CpdX could result in a skin atrophy, Balb/C mice were shaved on the dorsal skin. Ethanol (vehicle), Dex, CpdX or either one of its two enantiomers CpdX(eA) or CpdX(eB), as well as the deuterated form CpdX-D3 or either one of its two enantiomers CpdX-D3(eA) or CpdX-D3(eB), were topically applied onto the dorsal skin for 8 days.
Upon completion of the treatments, RNA transcripts were extracted from dorsal skin samples and the transcripts of Kindlin-1 and REDD1 genes were analyzed by q-RT-PCR. Histological and morphometric analyses of the dorsal skin were also performed.

B6 male mice = test: Corticosterone synthesis and adrenal gland after three-month treatment; settings: for plasmatic corticosterone level: at 10 a.m., compared to control mice (Vehicle); for cortex layers, most notably the fasciculata zone, of the adrenal glands / glomerulosa zone of the adrenal cortex / transcripts of Cyp11a, Cyp11b1 and HSD3β genes in adrenal glands: three months; for cortex layers, most notably the fasciculata zone, of the adrenal glands / glomerulosa zone of the adrenal cortex: histology; for glomerulosa zone of the adrenal cortex: 'but not' = not decreased; for transcripts of Cyp11a, Cyp11b1 and HSD3β genes in adrenal glands: q-RT-PCR
Description: B6 male mice (8-week-old) were daily subjected for three months to either a subcutaneous injection of vehicle (NaCl 0.9%), Dex, CpdX, CpdX(eA), CpdX(eB), CpdX-D3, CpdX-D3(eA) or CpdX-D3(eB) (1 mg/kg body weight, diluted in vehicle).
Following this long-term treatment, blood was collected at 10 a.m. and 6 p.m. by retro-orbital puncture in lithium-heparin coated vials, and the plasmatic level of corticosterone was determined. Adrenal glands were harvested and weighted. RNA transcripts were extracted and transcripts of the Cyp11a, Cyp11b1, Cyp11b2 and HSD3β genes were analyzed by q-RT-PCR. Histological analyses of the adrenal glands were also carried out.

Balb/C mice [2] = test: Dextran sodium sulfate (DSS)-induced ulcerative colitis; settings: for pro-inflammatory genes overexpressed in DSS-induced ulcerative colitis (IL-1β, IL-6, IL-17a, IL-17f, TSLP, MMP13): colon, q-RT-PCR, D14; for colonic villus/crypt structure / mucosal and submucosal cell infiltration: i.p. 1 mg/kg on D11, D12, D13, H&E histology
Description: To investigate the anti-inflammatory activity of CpdX and CpdX-D3 on a Th17 ulcerative colitis, Balb/C mice were treated with 3% DSS in drinking water for 13 days, with or without an intraperitoneal administration of either Dex, CpdX, CpdX(eA), CpdX(eB), CpdX-D3, CpdX-D3(eA) or CpdX-D3(eB) (1 mg/kg of body weight) on D11, D12 and D13.
At D14, RNA transcripts were extracted from mouse colons. IL-1β, IL-6, IL-17a, IL-17f, TSLP and MMP13 transcripts were analyzed by q-RT-PCR. Colon samples were also harvested for histological analyses (with H&E staining).

Balb/C mice [3] = test: Ovalbumin (OVA)-induced allergic conjunctivitis; settings: 0.1% instillation D22 to D24, 20 minutes after the last OVA challenge
Description: To investigate the anti-inflammatory effect of CpdX or CpdX-D3 on an allergic conjunctivitis, Balb/C mice were intraperitoneally sensitized with 50 μg OVA with alum on both days D1 and D8, and then challenged from D15 to D21 with 250 μg OVA in 5 μL of sterilized vehicle (0.9% NaCl), which were directly instilled onto the conjunctival sac. From D22 to D24, mice were divided into several groups, and received instillations with either OVA alone, OVA together with 0.1% of either Dex, CpdX, CpdX(eA), CpdX(eB), CpdX-D3, CpdX-D3(eA) or CpdX-D3(eB).
The clinical appearance of mouse eyes was evaluated 20 minutes after the last instillation on D24. Clinical signs (conjunctival hyperemia, lid edema and tearing) were scored to evaluate the occurrence and severity of conjunctivitis as described by Gimenes et al. (2015. Experimental Eye Research 134:24-32). Parameters were graded on a scale ranging from 0 to 3, (0=absence, 1=mild, 2=moderate, and 3=severe symptoms), each animal receiving a total clinical score ranging from 0 to 9. The data were expressed as mean±SEM with at least four mice per treatment.

mice = test: House dust mite (HDM)-induced asthma-like allergic lung inflammation; settings: for total number of BAL cells, eosinophils and lymphocytes: 0.5 mg/kg on D29-D31, BAL on D32, vs control group; for peribronchiolar and perivascular inflammatory cell infiltration: histology of lung paraffin sections; for expressions of IL-1β, IL-6, IL-4, IL-5, IL-13, Eotaxin and CCL4 (pro-inflammatory genes) in lung samples / HDM-induced airway hyperresponsiveness (AHR), airway resistance and elastance: D32; for HDM-induced airway hyperresponsiveness (AHR), airway resistance and elastance: response to methacholine 50 mg/mL
Description: Glucocorticoids have been (Pearlman et al., 1997. Ann Allergy Asthma Immunol. 78(4):356-62), and are still, widely used in asthma therapy. In order to investigate the possible CpdX anti-inflammatory activity in vivo, mice were sensitized and challenged with either ovalbumin (OVA) or house dust mite (HDM) to induce an asthma-like allergic lung inflammation.
Mice were intranasally sensitized with 1 μg HDM from DO to D4, and further intranasally sensitized with 10 μg HDM on D14 and D21. Mice were then subdivided into eight groups, and on D29, D30 and D31, each mouse was again intranasally challenged with 1 μg HDM. The first seven groups received respectively 0.5 mg/kg of body weight of Dex, CpdX, CpdX(eA), CpdX(eB), CpdX-D3, CpdX-D3(eA) or CpdX-D3(eB), while the eighth group served as a control.
On D32, the airway responsiveness was invasively determined using a computer-controlled small animal ventilator (FlexVent® system, SCIREQ Technologies). Mice were anesthetized with xylazine (15 mg/kg, i.p.), followed 15 minutes later by an i.p. injection of pentobarbital sodium (54 mg/kg). An 18-gauge metal needle was then inserted into the trachea, each mouse was connected to the FlexVent® ventilator and quasi-sinusoidally ventilated with a tidal volume of 10 mL/kg at a frequency of 150 breaths/minute and a positive end-expiratory pressure of 2 cm H2O, in order to achieve a mean lung volume close to spontaneous breathing. After baseline measurement, mice were challenged for 10 seconds with a saline aerosol and, at 4.5-minute intervals, with 50 mg/mL methacholine. Airway resistance and elastance were expressed as cmH20·s/mL and cmH2O/mL respectively.
The lung allergic inflammation was assessed by examination of the bronchoalveolar lavage (BAL) fluid from each of these HDM-challenged mice. The total BAL cells, eosinophils, neutrophils, macrophages and lymphocytes were counted. RNA transcripts were extracted from lung samples. RNA transcripts of IL-1β, IL-6, IL-4, IL-5, IL-13, Eotaxin, CCL4, IL-10 and TNFα were analyzed by q-RT-PCR. Lung tissues were harvested and histological (with H&E staining) and immunohistochemical analyses were also carried out (with eosinophil-specific and neutrophil-specific antibodies).

SMILES	epidermal thickness (Balb/C mice [1]; eight-day topical treatment)	transcription of the REDD1 gene in dorsal skin (Balb/C mice [1])	plasmatic corticosterone level (B6 male mice)	cortex layers, most notably the fasciculata zone, of the adrenal glands (B6 male mice)	glomerulosa zone of the adrenal cortex (B6 male mice)	transcripts of Cyp11a, Cyp11b1 and HSD3β genes in adrenal glands (B6 male mice)	pro-inflammatory genes overexpressed in DSS-induced ulcerative colitis (IL-1β, IL-6, IL-17a, IL-17f, TSLP, MMP13) (Balb/C mice [2])	colonic villus/crypt structure (Balb/C mice [2])	mucosal and submucosal cell infiltration (Balb/C mice [2])	clinical signs of allergic conjunctivitis (conjunctival hyperemia, lid edema and tearing) (Balb/C mice [3])	total number of BAL cells, eosinophils and lymphocytes (mice)	peribronchiolar and perivascular inflammatory cell infiltration (mice)	expressions of IL-1β, IL-6, IL-4, IL-5, IL-13, Eotaxin and CCL4 (pro-inflammatory genes) in lung samples (mice; q-RT-PCR)	skin atrophy, histological analysis (Balb/C mice [1]; eight-day topical treatment, 'in marked contrast' = no severe atrophy as with Dex)	number of neutrophils and macrophages in BAL (mice; 0.5 mg/kg on D29-D31, BAL on D32)	eosinophils in lung, immunohistochemistry (mice; eosinophil-specific antibodies, data not shown)	neutrophils in lung, immunohistochemistry (mice; neutrophil-specific antibody, data not shown)	expressions of IL-10 and TNFα in lung samples (mice; q-RT-PCR, data not shown)	HDM-induced airway hyperresponsiveness (AHR), airway resistance and elastance (mice)
COc1ccc(F)cc1C(C)(C)CC(O)(CNc1ccc2c(c1)COC2=O)C(F)(F)F (single isomer, unassigned) [CpdX(eB), 5-[4-(5-fluoro-2-methoxyphenyl)-2-hydroxy-4-methyl-2-(trifluoromethyl)pentylamino]-isobenzofuran-1(3H)-one]	not significantly decreased	but not	much higher	markedly increased	but not	increased	similarly repressed	almost reestablished	significantly decreased	considerably reduced	–	–	–	–	–	–	–	–	–
[2H]C([2H])([2H])Oc1ccc(F)cc1C(C)(C)CC(O)(CNc1ccc2c(c1)COC2=O)C(F)(F)F (stereo not drawn) [CpdX-D3(eB), 5-{4-[2-(methoxy-D3)-5-fluorophenyl]-2-hydroxy-4-methyl-2-(trifluoromethyl)pentylamino}isobenzofuran-1(3H)-one]	not significantly decreased	but not	much higher	markedly increased	but not	increased	similarly repressed	almost reestablished	significantly decreased	considerably reduced	–	–	–	–	–	–	–	–	–
[2H]C([2H])([2H])Oc1ccc(F)cc1C(C)(C)CC(O)(CNc1ccc2c(c1)COC2=O)C(F)(F)F (stereo not drawn) [CpdX-D3(eA), 5-{4-[2-(methoxy-D3)-5-fluorophenyl]-2-hydroxy-4-methyl-2-(trifluoromethyl)pentylamino}isobenzofuran-1(3H)-one]	not significantly decreased	but not	much higher	markedly increased	but not	increased	similarly repressed	almost reestablished	significantly decreased	considerably reduced	efficiently decreased	decreased	efficiently decreased	–	–	–	–	–	–
[2H]C([2H])([2H])Oc1ccc(F)cc1C(C)(C)CC(O)(CNc1ccc2c(c1)COC2=O)C(F)(F)F (racemic) [CpdX-D3, 5-{4-[2-(methoxy-D3)-5-fluorophenyl]-2-hydroxy-4-methyl-2-(trifluoro-methyl)pentylamino}isobenzofuran-1(3H)-one]	not significantly decreased	but not	much higher	markedly increased	but not	increased	similarly repressed	almost reestablished	significantly decreased	considerably reduced	significantly decreased	strongly decreased	significantly and similarly decreased	in marked contrast	No significant change	decreased	no significant change	not affected	similarly reduced
COc1ccc(F)cc1C(C)(C)CC(O)(CNc1ccc2c(c1)COC2=O)C(F)(F)F (single isomer, unassigned) [CpdX(eA), 5-[4-(5-fluoro-2-methoxyphenyl)-2-hydroxy-4-methyl-2-(trifluoromethyl)pentylamino]-isobenzofuran-1(3H)-one]	not significantly decreased	but not	much higher	markedly increased	but not	increased	similarly repressed	almost reestablished	significantly decreased	considerably reduced	efficiently decreased	decreased	efficiently decreased	–	–	–	–	–	reduced
